# Earlier results, collected in US20100120727A1, “Eflornithine Prodrugs, Conjugates and Salts, and Methods of Use Thereof” (Kyphia Pharmaceuticals, Inc., priority 2008, published 2010).
# Read-outs that look alike come from different tables or passages of the source.
# Columns and labels:
# tumor putrescine levels = settings: DFMO infusion
# MCA sarcoma = settings: in vivo
# [1] = not given; remark: listed apart in the source
# [2] = not given; remark: listed apart in the source
structure (smiles),measurement,setting,value
"NCCCC(N)(C(=O)O)C(F)F (racemic) [DFMO, 2-(Difluoromethyl)-DL-ornithine]",decrease in tumor putrescine levels,tumor putrescine levels,90%
same,tumor growth rate and regression,MCA sarcoma,reduces the growth rate of an MCA sarcoma but does not produce tumor regression
"CC(=O)Oc1ccccc1C(=O)O [Aspirin, acetylsalicylic acid]",solubility in water,,very low solubility in water
CC1=C(CC(=O)O)c2cc(F)ccc2/C1=C\c1ccc(S(C)(=O)=O)cc1 [Sulindac sulfone],COX-inhibitory activity,COX,lacks COX-inhibitory activity
"CC1=C(CC(=O)O)c2cc(F)ccc2/C1=C\c1ccc([S+](C)[O-])cc1 (stereo not shown) [Sulindac, (Z)-5-Fluoro-2-methyl-1-((4 (methylsulfinyl)phenyl)methylene)1H-indene-3-acetic acid]",time to peak plasma levels,[1]; administered with food,3 to 4 h
same,fraction of the drug absorbed,[1]; after oral administration,about 90%
same,time to peak plasma levels,[1]; fasting patients,about 2 hours
same,"mild gastrointestinal effects, share of patients",[2]; abdominal pain and nausea most frequent,~20%
same,"skin rash and pruritus, share of patients","[2]; human, in vivo",5%
CSc1ccc(/C=C2/C(C)=C(CC(=O)O)c3cc(F)ccc32)cc1 [sulfide metabolite],mean half-life,[1]; in vivo,16.4 h
